In patent US9029376B2, “Small molecule inhibitors for the treatment or prevention of dengue virus infection” (Siga Technologies, Inc., priority 2008, dated 2015):
Read-outs that look alike come from different tables or passages of the source.

System: Dengue-2 (Strain New Guinea C)
Assay: Dengue-2 viral yield assay in Vero cells
Format: cell-based
Conditions: Dengue virus, read-out: Activity (anti-dengue 2 viral activity, EC50)
Procedure: Compounds that were active in the primary screen were tested for activity in viral yield assays. […] Vero cells in 12-well plates were infected with dengue-2 virus at a multiplicity of infection (MOI) of 0.1, treated with compound (or DMSO as a control), incubated at 37° C., harvested 48 hours post infection and titered on Vero cells as described above. The EC50 was calculated through ExcelFit. Those compounds with activity below 1 μM are indicated with “A”, those with activity between 1 and 10 μM are indicated with “B”, and those with activity between 10 and 25 μM with “C”.

[1] = Dengue-2 strain New Guinea C, Vero cells, MOI 0.1, harvested 48 hours post infection, viral yield

SMILES: COc1ccccc1C(=O)Nc1ccc2nc(SCC(=O)N3CCOCC3)sc2c1 [Compound 28, 2-Methoxy-N-[2-(2-morpholin-4-yl-2-oxo-ethylsulfanyl)-benzothiazol-6-yl]-benzamide]
- EC50 (Vero, 48 h): > 25 µM

SMILES: O=C(CSc1nnc(-c2ccccc2)n1-c1ccccc1)Nc1ccc2nc(SCC(=O)N3CCOCC3)sc2c1 [Compound 35, 2-(4,5-Diphenyl-4H-[1,2,4]triazol-3-ylsulfanyl)-N-[2-(2-morpholin-4-yl-2-oxo-ethylsulfanyl)-benzothiazol-6-yl]-acetamide]
- EC50 [1]: > 25 µM

SMILES: Nc1ccc2nc(SCC(=O)N3CCCC3)sc2c1 [Compound 59, 2-(6-Amino-benzothiazol-2-ylsulfanyl)-1-pyrrolidin-1-yl-ethanone]
- EC50 (Vero, 48 h): > 25 µM

SMILES: CC(=O)Nc1ccc2nc(SCC(=O)N3CCN(c4ccccc4)CC3)sc2c1 [Compound 57, N-{2-[2-Oxo-2-(4-phenyl-piperazin-1-yl)-ethylsulfanyl]-benzothiazol-6-yl}-acetamide]
- EC50 [1]: > 25 µM

SMILES: O=C(CSc1nnc(CSc2nc3ccccc3s2)o1)NC1CCCCC1 [Compound 53, 2-[5-(Benzothiazol-2-ylsulfanylmethyl)-[1,3,4]oxadiazol-2-ylsulfanyl]-N-cyclohexyl-acetamide]
- EC50 (Vero, 48 h): > 25 µM

SMILES: NC(=O)C1CCN(C(=O)CSc2nc3ccccc3[nH]2)CC1 [Compound 68, 1-[2-(1H-Benzoimidazol-2-ylsulfanyl)-acetyl]-piperidine-4-carboxylic acid amide]
- EC50 (Vero, 48 h): > 25 µM

SMILES: Cn1ccnc1SCC(=O)Nc1ccc2nc(SCC(=O)N3CCOCC3)sc2c1 [Compound 33, 2-(1-Methyl-1H-imidazol-2-ylsulfanyl)-N-[2-(2-morpholin-4-yl-2-oxo-ethylsulfanyl)-benzothiazol-6-yl]-acetamide]
- EC50 [1]: > 25 µM

SMILES: Nc1ccc2nc(SCC(=O)N3CCN(c4nc5ccccc5s4)CC3)sc2c1 [Compound 40, 2-(6-Amino-benzothiazol-2-ylsulfanyl)-1-(4-benzothiazol-2-yl-piperazin-1-yl)-ethanone]
- EC50 [1]: > 25 µM

SMILES: O=C(CSc1nc2ccccc2[nH]1)N1CCCC1 [Compound 45, 2-(1H-Benzoimidazol-2-ylsulfanyl)-1-pyrrolidin-1-yl-ethanone]
- EC50 [1]: > 25 µM

SMILES: O=C(Nc1ccc2nc(SCC(=O)N3CCOCC3)sc2c1)c1ccccc1 [Compound 21, N-[2-(2-Morpholin-4-yl-2-oxo-ethylsulfanyl)-benzothiazol-6-yl]-benzamide]
- EC50 (Vero, 48 h): > 25 µM

SMILES: O=C(CSc1nc2ccccc2[nH]1)N1CCN(c2ccc(F)cc2)CC1 [Compound 8, 2-(1H-Benzoimidazol-2-ylsulfanyl)-1-[4-(4-fluoro-phenyl)-piperazin-1-yl]-ethanone]
- EC50 (Vero, 48 h): 1 to 10 µM

SMILES: CCOc1ccc2nc(SCC(=O)N3CCN(c4nc5ccccc5s4)CC3)sc2c1 [Compound 39, 1-(4-Benzothiazol-2-yl-piperazin-1-yl)-2-(6-ethoxy-benzothiazol-2-ylsulfanyl)-ethanone]
- EC50 [1]: > 25 µM

SMILES: O=C(CSc1nc2ccc([N+](=O)[O-])cc2s1)N1CCN(c2cccc(Cl)c2)CC1 [Compound 73, 1-[4-(3-Chloro-phenyl)-piperazin-1-yl]-2-(6-nitro-benzothiazol-2-ylsulfanyl)-ethanone]
- EC50 [1]: > 25 µM

SMILES: CCn1c(SCC(=O)N2CCC(C(N)=O)(N3CCCCC3)CC2)nnc1-c1ccccc1 [Compound 69, 1′-[2-(4-Ethyl-5-phenyl-4H-[1,2,4]triazol-3-ylsulfanyl)-acetyl]-[1,4′]bipiperidinyl-4′-carboxylic acid amide]
- EC50 (Vero, 48 h): > 25 µM

SMILES: O=C(Nc1ccc2nc(SCC(=O)N3CCCC3)sc2c1)c1ccc(Cl)cc1 [Compound 58, 4-Chloro-N-[2-(2-oxo-2-pyrrolidin-1-yl-ethylsulfanyl)-benzothiazol-6-yl]-benzamide]
- EC50 [1]: > 25 µM

SMILES: O=C(Nc1ccc2nc(SCC(=O)N3CCOCC3)sc2c1)C1CCCCC1 [Compound 32, Cyclohexanecarboxylic acid [2-(2-morpholin-4-yl-2-oxo-ethylsulfanyl)-benzothiazol-6-yl]-amide]
- EC50 [1]: > 25 µM

SMILES: NC(=O)C1CCN(C(=O)CSc2nc3ccccc3o2)CC1 [Compound 67, 1-[2-(Benzooxazol-2-ylsulfanyl)-acetyl]-piperidine-4-carboxylic acid amide]
- EC50 [1]: > 25 µM

SMILES: O=C(CSc1nc2cc(Cl)ccc2o1)N1CCOCC1 [Compound 74, 2-(5-Chloro-benzooxazol-2-ylsulfanyl)-1-morpholin-4-yl-ethanone]
- EC50 (Vero, 48 h): > 25 µM

SMILES: O=C(CSc1nc2ccc(/N=C/c3c(Cl)cccc3Cl)cc2s1)N1CCOCC1 [Compound 24, 2-(6-{[1-(2,6-Dichloro-phenyl)-meth-(E)-ylidene]-amino}-benzothiazol-2-ylsulfanyl)-1-morpholin-4-yl-ethanone]
- EC50 [1]: > 25 µM

SMILES: Cn1c(SCC(=O)N2CCc3ccccc3C2)nc2ccccc21 [Compound 81, 1-(3,4-Dihydro-1H-isoquinolin-2-yl)-2-(1-methyl-1H-benzoimidazol-2-ylsulfanyl)-ethanone]
- EC50 [1]: > 25 µM

SMILES: O=C(CSc1nc2ccccc2n1-c1ccccc1)N1CCN(c2ccccc2)CC1 [Compound 51, 2-(1-Phenyl-1H-benzoimidazol-2-ylsulfanyl)-1-(4-phenyl-piperazin-1-yl)-ethanone]
- EC50 [1]: > 25 µM

SMILES: Cn1c(SCC(=O)Nc2ccc3nc(SCC(=O)N4CCOCC4)sc3c2)nnc1-c1ccccc1 [Compound 37, 2-(4-Methyl-5-phenyl-4H-[1,2,4]triazol-3-ylsulfanyl)-N-[2-(2-morpholin-4-yl-2-oxo-ethylsulfanyl)-benzothiazol-6-yl]-acetamide]
- EC50 [1]: > 25 µM

SMILES: O=C(CSc1nc2ccccc2s1)N1CCCC1 [Compound 63, 2-(Benzothiazol-2-ylsulfanyl)-1-pyrrolidin-1-yl-ethanone]
- EC50 [1]: > 25 µM

SMILES: Nc1ccc2nc(SCC(=O)N3CCOCC3)sc2c1 [Compound 16, 2-(6-Amino-benzothiazol-2-ylsulfanyl)-1-morpholin-4-yl-ethanone]
- EC50 (Vero, 48 h): > 25 µM

SMILES: Nc1ccc2nc(SCC(=O)N3CCN(c4ccc(Cl)cc4)CC3)sc2c1 [Compound 77, 2-(6-Amino-benzothiazol-2-ylsulfanyl)-1-[4-(4-chloro-phenyl)-piperazin-1-yl]-ethanone]
- EC50 [1]: > 25 µM

SMILES: O=C(CSc1nc2ccccc2s1)Nc1ccc2nc(SCC(=O)N3CCOCC3)sc2c1 [Compound 34, 2-(Benzothiazol-2-ylsulfanyl)-N-[2-(2-morpholin-4-yl-2-oxo-ethylsulfanyl)-benzothiazol-6-yl]-acetamide]
- EC50 [1]: > 25 µM

SMILES: O=C(CSc1nc2ccccc2[nH]1)N1CCN(c2ccccc2)CC1 [Compound 46, 2-(1H-Benzoimidazol-2-ylsulfanyl)-1-(4-phenyl-piperazin-1-yl)-ethanone]
- EC50 (Vero, 48 h): > 25 µM

SMILES: Cc1ccccc1C(=O)Nc1ccc2nc(SCC(=O)N3CCOCC3)sc2c1 [Compound 5, 2-Methyl-N-[2-(2-morpholin-4-yl-2-oxo-ethylsulfanyl)-benzothiazol-6-yl]-benzamide]
- EC50 [1]: 1 to 10 µM

SMILES: O=C(CSc1nc2ccccc2o1)N1CCc2ccccc2C1 [Compound 47, 2-(Benzooxazol-2-ylsulfanyl)-1-(3,4-dihydro-1H-isoquinolin-2-yl)-ethanone]
- EC50 [1]: > 25 µM

SMILES: NC(=O)C1(N2CCCCC2)CCN(C(=O)CSc2nc3ccccc3[nH]2)CC1 [Compound 70, 1′-[2-(1H-Benzoimidazol-2-ylsulfanyl)-acetyl]-[1,4′]bipiperidinyl-4′-carboxylic acid amide]
- EC50 (Vero, 48 h): > 25 µM

SMILES: O=C(CSc1nc2ccccc2[nH]1)N1CCOCC1 [Compound 42, 2-(1H-Benzoimidazol-2-ylsulfanyl)-1-morpholin-4-yl-ethanone]
- EC50 [1]: > 25 µM
